Results taken from ChEMBL document CHEMBL5046264, “Cyclotides Chemosensitize Glioblastoma Cells to Temozolomide” (J Nat Prod, 2022).
Positions of bridges follow the written chain, without caps; N, C: chain ends. Residues, ends and D or L forms follow the SMILES beside them.

Experiments:
[1] = system: SH-SY5Y; experiment: Cytotoxicity against human SH-SY5Y cells using best fit nonlinear regression analysis; type: functional, cell-based
[2] = system: SH-SY5Y; experiment: Cytotoxicity against human SH-SY5Y cells assessed as cell viability using raw interpretation method; type: functional, cell-based
[3] = system: U-87 MG; experiment: Cytotoxicity against human U-87 MG cells assessed as cell viability using raw interpretation method; type: functional, cell-based, U-87MG ATCC
[4] = system: U-87 MG; experiment: Cytotoxicity against human U-87 MG cells using best fit nonlinear regression analysis; type: functional, cell-based, U-87MG ATCC
[5] = system: SH-SY5Y; experiment: Cytotoxicity against human SH-SY5Y cells assessed as cell viability at 5 uM upto 72 hrs by MTT assay; type: functional; details: time hrs <=72, read-out: Activity
[6] = system: U-87 MG; experiment: Cytotoxicity against human U-87 MG cells assessed as cell viability at 5 uM upto 72 hrs by MTT assay; type: functional, U-87MG ATCC; details: time hrs <=72, read-out: Activity
[7] = system: U-251; experiment: Cytotoxicity against human U-251 cells by sulforhodamine B assay; type: functional, cell-based
[8] = system: U-87 MG; experiment: Cytotoxicity against human U-87 MG cells by sulforhodamine B assay; type: functional, cell-based, U-87MG ATCC
[9] = system: SH-SY5Y; experiment: Cytotoxicity against human SH-SY5Y cells assessed as cell viability at 10 uM upto 72 hrs by MTT assay; type: functional; details: time hrs <=72, read-out: Activity
[10] = system: U-87 MG; experiment: Cytotoxicity against human U-87 MG cells assessed as cell viability at 10 uM upto 72 hrs by MTT assay; type: functional, U-87MG ATCC; details: time hrs <=72, read-out: Activity

Structure (SMILES) | IC50 [1] | IC50 [2] | IC50 [3] | IC50 [4] | viability at 5 µM [5] | viability at 5 µM [6] | IC50 [7] | IC50 [8] | viability at 10 µM [9] | viability at 10 µM [10]
CC[C@H](C)[C@@H]1NC(=O)[C@H](C)NC(=O)[C@H](C)NC(=O)[C@H](CO)NC(=O)[C@H]([C@@H](C)CC)NC(=O)[C@@H]2CSSC[C@@H]3NC(=O)[C@H](C(C)C)NC(=O)[C@H](CCCCN)NC(=O)[C@H](CO)NC(=O)[C@H](CCCCN)NC(=O)[C@@H]4CSSC[C@H](NC(=O)[C@H](CO)NC(=O)[C@H](CCC(=O)O)NC(=O)CNC(=O)[C@H](CSSC[C@H](NC(=O)CNC1=O)C(=O)N[C@@H](CO)C(=O)N4)NC(=O)[C@@H]1CCCN1C(=O)[C@H]([C@@H](C)CC)NC(=O)CNC(=O)[C@H](CC(N)=O)NC(=O)[C@H](CCCNC(=N)N)NC(=O)[C@H](Cc1ccc(O)cc1)NC3=O)C(=O)N[C@@H](C(C)C)C(=O)N[C@@H](Cc1c[nH]c3ccccc13)C(=O)N[C@@H]([C@@H](C)CC)C(=O)N1CCC[C@H]1C(=O)N2 [CYCLOVIOLACIN O13] (cyclo(AAIGCSCKSKVCYRNGIPCGESCVWIPCIS); disulfide 5-19, 7-23, 12-28) | 2.15 µM | 3.07 µM | 3.36 µM | 2.57 µM | 12.5% | 29.7% | – | – | – | –
CC(C)C[C@@H]1NC(=O)CNC(=O)[C@H](CC(N)=O)NC(=O)[C@H](CCCNC(=N)N)NC(=O)[C@H]([C@@H](C)O)NC(=O)[C@@H]2CSSC[C@@H]3NC(=O)[C@H]([C@@H](C)O)NC(=O)CNC(=O)CNC(=O)[C@H](C(C)C)NC(=O)[C@@H]4CSSC[C@H](NC(=O)[C@H]([C@@H](C)O)NC(=O)[C@H](CSSC[C@H](NC(=O)[C@H](C(C)C)NC(=O)[C@@H]5CCCN5C1=O)C(=O)NCC(=O)N[C@@H](CCC(=O)O)C(=O)N[C@@H]([C@@H](C)O)C(=O)N4)NC(=O)CNC(=O)[C@@H]1CCCN1C(=O)[C@H]([C@@H](C)O)NC(=O)[C@H](CC(N)=O)NC3=O)C(=O)N[C@@H](CO)C(=O)N[C@@H](Cc1c[nH]c3ccccc13)C(=O)N1CCC[C@H]1C(=O)N[C@@H](C(C)C)C(=O)N2 | 5.56 µM | 6.05 µM | 7.97 µM | 7.93 µM | 60% | 60% | 10.9 µM | 3.21 µM | 20% | 40%
